Measurements as given in patent US20090221624A1, “4-AMINOQUINOLINE COMPOUNDS FOR TREATING VIRUS-RELATED CONDITIONS” (priority 2005, published 2009).
Read-outs that look alike come from different tables or passages of the source.

Tests used:
[1] = tested on: HCV replicon (Clone A cells, Huh7, subgenomic hepatits C virus RNA); assay: HCV Neo screening assay (HCV replicon, NPTII ELISA); format: cell-based, hepatitis C virus; details: for inhibition at 25 µM: primary screening, 25 μM final concentration, 24 hours, percent inhibition of viral replication, read-out: HCV Inh
[2] = tested on: RSV minigenome; assay: RSV minigenome-dependent β-galactosidase expression assay (RSV β-Gal); format: cell-based, respiratory syncytial virus; details: for EC50: Secondary Data, RSV, read-out: RSV EC50; for inhibition at 25 µM: primary screening, 25 μM final concentration, 24 hours, percent inhibition of viral replication, read-out: RSV Inh; for RSV TI: therapeutic index CC50/EC50, RSV
[3] = tested on: WNV (WN-hRuPac cells); assay: WNV antiviral activity, WN-hRuPac cells, Renilla luciferase; format: cell-based, West Nile virus; details: for EC50 / inhibition at 25 µM: West Nile virus; for EC50: Secondary Data, WNV, read-out: WNV EC50; for inhibition at 25 µM: primary screening, 25 μM final concentration, 24 hours, percent inhibition of viral replication, read-out: WNV Inh; for WNV TI: therapeutic index CC50/EC50, WNV
[4] = tested on: YFV (YF-hRuPac cells); assay: microbe, parasite or virus in culture; format: cell-based, yellow fever virus; details: for inhibition at 25 µM / EC50: Yellow fever virus; for inhibition at 25 µM: 24 h, read-out: YFV Inh; for EC50: read-out: YFV EC50
[5] = tested on: EBOV minigenome; assay: microbe, parasite or virus in culture; format: cell-based, Ebola virus; details: for inhibition at 25 µM / EC50: Zaire ebolavirus; for inhibition at 25 µM: 24 h, read-out: EBOV Inh; for EC50: read-out: EBOV EC50
[6] = tested on: SINV (SR19-F-luc cells); assay: SINV antiviral activity, SR19-F-luc cells, Firefly luciferase; format: cell-based; details: Sindbis virus; for inhibition at 25 µM: primary screening, 25 μM final concentration, 24 hours, percent inhibition of viral replication, read-out: SINV Inh
[7] = in vitro
[8] = tested on: DNG (D2-hRuPac cells); assay: DNG antiviral activity, D2-hRuPac cells, Renilla luciferase; format: cell-based, Dengue fever virus; details: Dengue virus, secondary screening
[9] = human respiratory syncytial virus

| SMILES | inhibition at 25 µM ([1]; Hepatitis C virus, Huh-7) | EC50 [2, 9] | inhibition at 25 µM [2, 9] | RSV TI [2] | inhibition at 25 µM [3] | inhibition at 25 µM [4] | inhibition at 25 µM [5] | EC50 [5] | inhibition at 25 µM [6] | CC50 ([7]; DNG CC50) | CC50 ([7]; EBOV CC50) | CC50 ([7]; HCV CC50) | CC50 ([7]; RSV CC50) | CC50 ([7]; SINV CC50) | CC50 ([7]; WNV CC50) | CC50 ([7]; YFV CC50) | also measured |
| --- | --- | --- | --- | --- | --- | --- | --- | --- | --- | --- | --- | --- | --- | --- | --- | --- | --- |
| CCOc1ccc2nc(C)cc(Nc3ccc(Cl)cc3)c2c1 [Compound 59] | 140% | 3.26 µM | 99.7% | 6.5 | 83.7% | 84.6% | 92.2% | 3.23 µM | 93.5% | 21.2 µM | 21.2 µM | 7.45 µM | 21.2 µM | 21.2 µM | 21.2 µM | 21.2 µM | EC50 ([1]; Hepatitis C virus, Huh-7, Secondary Data, HCV): 6.07 µM; HCV TI ([1]; therapeutic index CC50/EC50, HCV): 1.23; EC50 [3]: 10.9 µM; WNV TI [3]: 1.94; YFV TI [4]: 4.82; EC50 [4]: 4.4 µM |
| CCOC(=O)c1cnc2c(OC)cccc2c1NCc1ccccc1 [Compound 62] | -5.83% | 3.73 µM | 99% | 11.66 | 67.7% | 76.6% | 97.4% | 75 µM | 81.3% | 43.5 µM | 43.5 µM | – | 43.5 µM | 43.5 µM | 43.5 µM | 43.5 µM | – |
| CCOC(=O)c1cnc2c(OC)cccc2c1NCc1ccco1 [Compound 67] | 5.39% | 1.2 µM | 98.3% | 24.88 | 33.5% | 70.7% | 86.6% | 20.1 µM | 68% | 29.9 µM | 29.9 µM | – | 29.9 µM | 29.9 µM | 29.9 µM | 29.9 µM | – |
| CCOC(=O)c1cnc2c(OC)cccc2c1NCc1cccnc1 [Compound 68] | 44.7% | 3 µM | 98.9% | 17 | 49.7% | 71.8% | 74.5% | 68.7 µM | 72.8% | 51 µM | 51 µM | – | 51 µM | 51 µM | 51 µM | 51 µM | – |
| CCOC(=O)c1cnc2c(OC)cccc2c1NCCCO [Compound 70] | 55.6% | 3.02 µM | 95.8% | 15.15 | 14.6% | 62.6% | 74.7% | 69.7 µM | 64.5% | 45.8 µM | 45.8 µM | ≥ 75 µM | 45.8 µM | 45.8 µM | 45.8 µM | 45.8 µM | – |
| COc1ccccc1Nc1cc(C)nc2c(C)c(C)cc(N)c12 [Compound 77] | – | – | – | 11.07 | – | – | – | 75 µM | – | 52.6 µM | 52.6 µM | – | 52.6 µM | 52.6 µM | 52.6 µM | 52.6 µM | EC50 [2]: 4.75 µM; EBOV Inh [5]: 94.37% |
| Cc1cc(NNC(=O)OCc2ccccc2)c2ccccc2n1 [Compound 78] | – | 1.38 µM | – | 37.03 | – | – | 42.3% | 75 µM | – | 51.1 µM | 51.1 µM | ≥ 75 µM | 51.1 µM | 51.1 µM | 51.1 µM | 51.1 µM | EC50 [3]: ≥ 75 µM; WNV TI [3]: 0.68; YFV TI [4]: 2.95; EC50 [4]: 17.3 µM; EC50 [8]: 57 µM; EC50 ([6]; secondary screening, SR19-F-luc cells): 7.54 µM |
